Experimental data published in ChEMBL document CHEMBL6153126, “Design, Synthesis, and Activity Evaluation of Novel Bifenamide Dual-Target Antibacterial Inhibitors and Carrier Based on Infectious Microenvironment” (J Med Chem, 2025).
The source made the active and inactive calls. No cut-off for these calls is given here.

What was measured:
[1] = molecular target: T1, UDP-3-O-acyl-N-acetylglucosamine deacetylase (Escherichia coli K-12, UniProt P0A725); assay: Binding affinity to Escherichia coli LpxC assessed as dissociation constant by SPR analysis
T1 sequence (P0A725 whole entry): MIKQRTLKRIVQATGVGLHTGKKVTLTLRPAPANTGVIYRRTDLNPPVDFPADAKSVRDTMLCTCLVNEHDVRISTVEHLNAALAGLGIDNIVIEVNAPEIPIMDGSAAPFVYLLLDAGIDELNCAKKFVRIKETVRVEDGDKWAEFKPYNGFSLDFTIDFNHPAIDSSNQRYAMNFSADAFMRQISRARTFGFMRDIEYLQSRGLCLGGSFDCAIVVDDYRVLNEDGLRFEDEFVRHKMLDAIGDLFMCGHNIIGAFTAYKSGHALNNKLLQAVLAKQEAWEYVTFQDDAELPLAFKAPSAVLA

[2] = Binding affinity to PD-L1 (unknown origin) assessed as dissociation constant by SPR analysis; design: species or system Homo sapiens
[3] = system: Klebsiella pneumoniae; assay: Antibacterial activity against Klebsiella pneumoniae ATCC 13883 infected in Kunming mouse model assessed as reduction in alveolar space in lung at 2 mg/kg, iv in presence of biphenyl isopropyl ester by H and E staining based analysis; type: functional, organism-based
[4] = molecular target: Programmed cell death 1 ligand 1 (Homo sapiens) (UniProt Q9NZQ7); assay: Binding affinity to PD-L1 (unknown origin) assessed as Change in enthalpy by ITC analysis
[5] = system: Pseudomonas aeruginosa; assay: Antimicrobial activity against Pseudomonas aeruginosa ATCC 9027 assessed as inhibition of microbial growth incubated for 64 hrs by broth-microdilution assay; type: functional
[6] = system: Klebsiella pneumoniae; assay: Antimicrobial activity against Klebsiella pneumoniae ATCC 13883 assessed as inhibition zone; type: functional
[7] = system: Klebsiella pneumoniae; assay: Antimicrobial activity against Klebsiella pneumoniae ATCC 13883 assessed as inhibition of microbial growth incubated for 64 hrs by broth-microdilution assay; type: functional
[8] = system: Salmonella typhimurium; assay: Antimicrobial activity against Salmonella typhimurium ATCC 14028 assessed as inhibition of microbial growth incubated for 64 hrs by broth-microdilution assay; type: functional, Salmonella enterica subsp. enterica serovar Typhimurium; details: Salmonella enterica
[9] = system: Escherichia coli; assay: Antimicrobial activity against Escherichia coli ATCC 8739 assessed as inhibition of microbial growth incubated for 64 hrs by broth-microdilution assay; type: functional
[10] = system: Pseudomonas aeruginosa; assay: Antimicrobial activity against Pseudomonas aeruginosa ATCC 9027 assessed as inhibition zone; type: functional; details: time 64 hrs
[11] = molecular target: T1, UDP-3-O-acyl-N-acetylglucosamine deacetylase; assay: Inhibition of Escherichia coli LpxC
[12] = molecular target: Programmed cell death 1 ligand 1 (Homo sapiens) (UniProt Q9NZQ7); assay: Binding affinity to PD-L1 (unknown origin) assessed as association constant at equilibrium by ITC analysis
[13] = system: A549; assay: Cytotoxicity against human A549 cells incubated for 24 hrs by CCK-8 assay; type: functional, cell-based; details: A549, 24 h
[14] = system: HeLa; assay: Cytotoxicity against human HeLa cells incubated for 24 hrs by CCK-8 assay; type: functional, cell-based
[15] = molecular target: Programmed cell death protein 1/Programmed cell death 1 ligand 1 (Homo sapiens, UniProt Q9NZQ7); assay: Inhibition of PD-1/PD-L1 (unknown origin) protein-protein interaction preincubated for 15 mins followed by PD-1-Eu addition and measured after 90 mins by TR-FRET assay; type: protein-complex assay
[16] = system: Klebsiella pneumoniae; assay: Induction of intracellular ROS accumulation in Klebsiella pneumoniae ATCC 13883 incubated for 12 hrs by fluorescence microscopic analysis; type: functional, organism-based
[17] = system: Klebsiella pneumoniae; assay: Antimicrobial activity against Klebsiella pneumoniae ATCC 13883 assessed as increase in percentage of bacterial cells by flow cytometry analysis; type: functional, organism-based
[18] = Half life in rat at 2 mg/kg, iv measured upto 24 hrs by LC-MS/MS analysis; type: ADME, organism-based; details: in vivo
[19] = Initial plasma concentration in rat at 2 mg/kg, iv measured upto 24 hrs by LC-MS/MS analysis; type: ADME, organism-based; details: in vivo, iv, 2 mg/kg, 24 h
[20] = system: Klebsiella pneumoniae; assay: Bactericidal activity against Klebsiella pneumoniae ATCC 13883 assessed as reduction in survival rate by colony counting method; type: functional
[21] = system: Klebsiella pneumoniae; assay: Antibacterial activity against Klebsiella pneumoniae ATCC 13883 infected in Kunming mouse model assessed as reduction in bacterial proliferation at 2 mg/kg, iv in presence of biphenyl isopropyl ester; type: functional, organism-based
[22] = Clearance in rat at 2 mg/kg, iv measured upto 24 hrs by LC-MS/MS analysis; type: ADME, organism-based; details: in vivo
[23] = Volume of distribution at steady state in rat at 2 mg/kg, iv measured upto 24 hrs by LC-MS/MS analysis; type: ADME, organism-based; details: in vivo, iv, 2 mg/kg, 24 h
[24] = AUC (0 to t) in rat at 2 mg/kg, iv measured upto 24 hrs by LC-MS/MS analysis; type: ADME, organism-based; details: in vivo
[25] = system: Klebsiella pneumoniae; assay: Antibacterial activity against Klebsiella pneumoniae ATCC 13883 infected in Kunming mouse model assessed as reduction in alveolar space in lung at 2 mg/kg, iv by H and E staining based analysis; type: functional, organism-based

Chain of Programmed cell death 1 ligand 1 (Homo sapiens) (Q9NZQ7 whole entry): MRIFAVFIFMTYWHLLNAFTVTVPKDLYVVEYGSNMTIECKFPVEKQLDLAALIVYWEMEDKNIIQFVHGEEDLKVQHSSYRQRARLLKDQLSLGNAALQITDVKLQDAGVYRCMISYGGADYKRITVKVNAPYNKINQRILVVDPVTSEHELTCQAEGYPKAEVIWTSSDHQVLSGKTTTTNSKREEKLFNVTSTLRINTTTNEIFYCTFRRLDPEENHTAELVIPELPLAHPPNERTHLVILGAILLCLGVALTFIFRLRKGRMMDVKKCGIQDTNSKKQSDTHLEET
Chain of Programmed cell death protein 1/Programmed cell death 1 ligand 1 (Q15116 whole entry): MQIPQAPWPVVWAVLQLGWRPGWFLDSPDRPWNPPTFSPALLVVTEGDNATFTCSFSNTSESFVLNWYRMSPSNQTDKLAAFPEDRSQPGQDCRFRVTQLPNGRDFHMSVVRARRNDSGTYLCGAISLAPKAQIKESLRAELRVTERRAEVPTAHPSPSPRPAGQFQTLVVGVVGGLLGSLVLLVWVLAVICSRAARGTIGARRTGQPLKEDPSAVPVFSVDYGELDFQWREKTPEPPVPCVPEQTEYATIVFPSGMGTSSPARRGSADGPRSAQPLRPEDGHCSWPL
Chain of Programmed cell death protein 1/Programmed cell death 1 ligand 1 (Q9NZQ7 whole entry): as the sequence (Q9NZQ7 whole entry) above

Row | SMILES | MIC50 [5] | MIC50 [7] | MIC50 [8] | MIC50 [9] | inhibition zone (IZ) [6] | inhibition zone (IZ) [10] | other results
1 | CC(C)OC(=O)[C@@H](CO)NCc1cc(Cl)c(OCc2cccc(-c3ccccc3)c2Br)cc1OCc1cccnc1 |  |  |  |  |  |  | Kd [1]: 0.401 nM; Kd [2]: 0.254 nM; Activity [3]: Active; deltaH [4]: 1.13 kcal/mol
2 | CCn1cc(C(=O)O)c(=O)c2cc(F)c(N3CCNCC3)cc21 [NORFLOXACIN] | 1 µg/mL | 1 µg/mL | 2 µg/mL | 0.5 µg/mL | 15.9 mm | 14.8 mm | 
3 | Cc1c(COc2cccc(CNC(CO)C(=O)NO)c2)cccc1-c1ccccc1 (configuration not stated) | 0.5 µg/mL | 0.5 µg/mL | 1 µg/mL | 0.5 µg/mL | 15.2 mm | 13.8 mm | IC50 [11]: 8400 nM; Ka [12]: 4.17 10^5/M; Kd [1]: 0.873 nM; IC50 [13]: > 50000 nM; IC50 [14]: > 50000 nM; IC50 [15]: 109 nM; Activity [16]: Active; Kd [2]: 0.135 nM; Activity [17]: Active; deltaH [4]: 0.995 kcal/mol
4 | Cc1c(COc2cccc(CN3CCCC3C(=O)NO)c2)cccc1-c1ccccc1 (configuration not stated) | 4 µg/mL | ≥ 16 µg/mL | 4 µg/mL | ≥ 16 µg/mL | 7.2 mm | <=6 mm | 
5 | Cc1c(CN2CCC(C(=O)NC(C(=O)NO)C(C)C)CC2)cccc1-c1ccccc1 (configuration not stated) | 8 µg/mL | 4 µg/mL | 4 µg/mL | 2 µg/mL | 9.5 mm | <=6 mm | 
6 | Cc1c(CN2CCC(C(=O)NC(CO)C(=O)NO)CC2)cccc1-c1ccccc1 (configuration not stated) | 4 µg/mL | 2 µg/mL | 8 µg/mL | ≥ 16 µg/mL | 11.6 mm | 10.1 mm | 
7 | C[C@H](O)[C@H](NC(=O)c1ccc(C#Cc2ccc(CN3CCOCC3)cc2)cc1)C(=O)NO | 1 µg/mL | 0.5 µg/mL | 0.5 µg/mL | 2 µg/mL | 14.2 mm | 13.5 mm | half-life [18]: 32.4 min; C0 [19]: 332 ng/mL; Activity [20]: 83%; Activity [16]: Active; Activity [21]: Active; clearance [22]: 75.6 mL/min/kg; Activity [17]: Active; Vdss [23]: 1.42 L/kg; AUC(0-t) at 24 h [24]: 289 ng·h/mL; Activity [25]: Active
8 | Cc1c(CN2CCC(C(=O)NC(C(=O)NO)C(C)O)CC2)cccc1-c1ccccc1 (configuration not stated) | 1 µg/mL | 0.5 µg/mL | 1 µg/mL | 2 µg/mL | 15.8 mm | 14.1 mm | 
9 | Cc1c(CN2CCC(C(=O)N3CCCC3C(=O)NO)CC2)cccc1-c1ccccc1 (configuration not stated) | 1 µg/mL | 0.5 µg/mL | 2 µg/mL | 1 µg/mL | 14.4 mm | 12.6 mm | IC50 [11]: 4300 nM; Ka [12]: 4.59 10^5/M; Kd [1]: 0.873 nM; IC50 [13]: > 50000 nM; IC50 [14]: > 50000 nM; IC50 [15]: 318 nM; Activity [16]: Active; Kd [2]: 0.135 nM; Activity [17]: Active; deltaH [4]: 0.735 kcal/mol

Now from value to compound, other results behind:

Row | MIC50 [5] | MIC50 [7] | MIC50 [8] | MIC50 [9] | SMILES | inhibition zone (IZ) [6] | inhibition zone (IZ) [10] | other results
10 | 8 µg/mL | ≥ 16 µg/mL | ≥ 16 µg/mL | 4 µg/mL | COc1cc(OCc2cccc(-c3ccccc3)c2C)cc(OC)c1CNC(C(=O)NO)C(C)C (configuration not stated) | <=6 mm | 6.3 mm | 
11 | ≥ 16 µg/mL | 4 µg/mL | 4 µg/mL | 8 µg/mL | Cc1c(COc2cccc(CNC(C(=O)NO)C(C)C)c2)cccc1-c1ccccc1 (configuration not stated) | 8.6 mm | 6.6 mm | 
12 | 1 µg/mL | 1 µg/mL | 4 µg/mL | 2 µg/mL | COc1cc(OCc2cccc(-c3ccccc3)c2C)cc(OC)c1CNC(C(=O)NO)C(C)O (configuration not stated) | 9.4 mm | 8.9 mm | 
13 | 4 µg/mL | 8 µg/mL | 4 µg/mL | ≥ 16 µg/mL | COc1cc(OCc2cccc(-c3ccccc3)c2C)cc(OC)c1CNC(CO)C(=O)NO (configuration not stated) | <=6 mm | 8.1 mm | 
14 | 1 µg/mL | 1 µg/mL | ≥ 16 µg/mL | 2 µg/mL | COc1cc(OCc2cccc(-c3ccccc3)c2C)cc(OC)c1CN1CCCC1C(=O)NO (configuration not stated) | 11.3 mm | 9.1 mm | 
